Data: patent publication US20240368163A1, “COMPOUNDS AND METHODS FOR MODULATING SPLICING” (REMIX THERAPEUTICS INC., priority 2021, published 2024)
Read-outs that look alike come from different tables or passages of the source.

Tests used:
Assay type in all cases: cell-based, human
Target C [1] = assay: HiBiT protein abundance assay, Target C; details: Table 13A, modified K562 cells
Method in brief: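 Luminescence from lytic HiBiT detection, taken after 24 h compound exposure at 37 °C, reports tagged protein abundance in knock-in cells seeded at 10000 cells/well. Doses spanned 10 points, 3-fold steps, top 10 μM final. A four-parameter logistic fit gave the 50% abundance concentration (IC50).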

MYB [2] = assay: HiBiT protein abundance assay, MYB; details: Table 13A, modified K562 cells
Method in brief: (§1)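 HiBiT knock-in K562, 10000 cells/well, 24 h cpd at 37 °C/5% CO2; 10-pt 3-fold series from 10 μM final; DMSO ≤0.25%. Lytic detection, luminescence read. 4PL fit → IC50 vs DMSO control; unmodified K562 = baseline.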

HTT [3] = assay: Splicing RT-qPCR assay, HTT mRNA canonical junction (CJ) and alternative junction (AJ); details: for AC50: increase in AJ mRNA
Method in brief: (§2)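 Splicing switch read by one-step RT-qPCR of canonical and alternative exon junctions, housekeeper-normalized (GAPDH/GUSB/PPIA), 2^(−ΔΔCt) vs DMSO as percent response. Cells (A673 or K562) dosed 24 h, 11 points 3-fold from 10 uM, DMSO ≤0.25%.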

HTT [4] = assay: HiBiT protein abundance assay, HTT; details: Table 13A, modified K562 cells
Method in brief: as §1

Target C [5] = assay: Splicing RT-qPCR panel, Target C canonical junction (CJ) mRNA; details: RT-qPCR panel, canonical junction mRNA, compound concentration having 50% response in CJ decrease, read-out: Target C IC50 (decrease in CJ mRNA levels)
Method in brief: as §2

SMN2 = assay: Splicing RT-qPCR panel, SMN2 canonical junction (CJ) mRNA; details: RT-qPCR panel, canonical junction mRNA, compound concentration having 50% response in CJ decrease, read-out: SMN2 IC50 (decrease in CJ mRNA levels)
Method in brief: as §2

MYB [6] = assay: Splicing RT-qPCR assay, MYB mRNA canonical junction (CJ) and alternative junction (AJ); details: for AC50: increase in AJ mRNA
Method in brief: as §2

[7] = Homo sapiens, 24 h, decrease in CJ mRNA, A673 or K562 cells, 24 hours treatment, RT-qPCR, read-out: HTT CJ IC50
[8] = Homo sapiens, 24 h, A673 or K562 cells, 24 hours treatment, RT-qPCR
[9] = Homo sapiens, RT-qPCR panel, canonical junction mRNA, compound concentration having 50% response in CJ decrease, read-out: HTT IC50 (decrease in CJ mRNA levels)
[10] = Homo sapiens, 24 h, decrease in CJ mRNA, A673 or K562 cells, 24 hours treatment, RT-qPCR, read-out: MYB CJ IC50
[11] = Homo sapiens, RT-qPCR panel, canonical junction mRNA, compound concentration having 50% response in CJ decrease, read-out: MYB IC50 (decrease in CJ mRNA levels)

SMILES	IC50 (Target C [1]; Homo sapiens, K562, 24 h) [nM]	IC50 (MYB [2]; Homo sapiens, K562, 24 h) [nM]	IC50 (HTT [3]; [7]) [nM]	AC50 (HTT [3]; [8]) [nM]	IC50 (HTT [3]; [9]) [nM]	IC50 (HTT [4]; Homo sapiens, K562, 24 h) [nM]	IC50 (Target C [5]; Homo sapiens) [nM]	IC50 (SMN2; Homo sapiens) [nM]	IC50 (MYB [6]; [10]) [nM]	AC50 (MYB [6]; [8]) [nM]	IC50 (MYB [6]; [11]) [nM]	IC50 (Target C [1]; 24 hours) [nM]	IC50 (MYB [2]; 24 hours) [nM]	IC50 (HTT [3]; RT-qPCR panel, canonical junction mRNA, compound concentration having 50% response in CJ decrease, read-out: HTT IC50 (decrease in CJ mRNA levels)) [nM]	IC50 (HTT [3]; decrease in CJ mRNA, A673 or K562 cells, 24 hours treatment, RT-qPCR, read-out: HTT CJ IC50) [nM]	IC50 (HTT [4]; 24 hours) [nM]	IC50 (Target C [5]) [nM]	IC50 (SMN2) [nM]	IC50 (MYB [6]; RT-qPCR panel, canonical junction mRNA, compound concentration having 50% response in CJ decrease, read-out: MYB IC50 (decrease in CJ mRNA levels)) [nM]	IC50 (MYB [6]; decrease in CJ mRNA, A673 or K562 cells, 24 hours treatment, RT-qPCR, read-out: MYB CJ IC50) [nM]
Cn1cc(-c2c(F)cc(-c3ccc(OC4CC(C)(C)NC(C)(C)C4)nn3)c3[nH]ncc23)cn1 [Compound 319, 5-fluoro-4-(1-methylpyrazol-4-yl)-7-{6-[(2,2,6,6-tetramethylpiperidin-4-yl)oxy]pyridazin-3-yl}-1H-indazole]	1000 to 10000	100 to 1000	100 to 1000	100 to 1000	100 to 1000	100 to 1000	1000 to 10000	< 100	100 to 1000	1000 to 10000	100 to 1000	–	–	–	–	–	–	–	–	–
CN(c1ccc(-c2cc(F)c(-c3cnn(C)c3)c3cn[nH]c23)nn1)C1CC(C)(C)NC(C)(C)C1 [Compound 320, 6-[5-fluoro-4-(1-methylpyrazol-4-yl)-1H-indazol-7-yl]-N-methyl-N-(2,2,6,6-tetramethylpiperidin-4-yl)pyridazin-3-amine]	–	100 to 1000	100 to 1000	100 to 1000	100 to 1000	100 to 1000	1000 to 10000	< 100	100 to 1000	–	100 to 1000	100 to 1000	–	–	–	–	–	–	–	–
Cn1ncc(-c2ccc(-c3ccc(O[C@@H]4C[C@H]5CC[C@@H](C4)N5)nn3)c3[nH]ncc23)n1 [Compound 321, 7-{6-[(1R,3S,5S)-8-azabicyclo[3.2.1]octan-3-yloxy]pyridazin-3-yl}-4-(2-methyl-1,2,3-triazol-4-yl)-1H-indazole]	100 to 1000	100 to 1000	100 to 1000	100 to 1000	100 to 1000	100 to 1000	100 to 1000	< 100	100 to 1000	100 to 1000	100 to 1000	–	–	–	–	–	–	–	–	–
Cn1ncc(-c2ccc(-c3ccc(N[C@@H]4C[C@H]5CC[C@@H](C4)N5)nn3)c3[nH]ncc23)n1 [Compound 322]	< 100	< 100	–	< 100	< 100	< 100	< 100	< 100	< 100	< 100	< 100	–	–	–	–	–	–	–	–	–
Cn1cc(-c2ccc(-c3ccc(O[C@@H]4C[C@H]5CC[C@@H](C4)N5)nn3)c3[nH]ncc23)nn1 [Compound 323, 7-{6-[(1R,3S,5S)-8-azabicyclo[3.2.1]octan-3-yloxy]pyridazin-3-yl}-4-(1-methyl-1,2,3-triazol-4-yl)-1H-indazole]	1000 to 10000	100 to 1000	100 to 1000	100 to 1000	100 to 1000	100 to 1000	1000 to 10000	< 100	100 to 1000	100 to 1000	100 to 1000	–	–	–	–	–	–	–	–	–
Cn1cc(-c2ccc(-c3ccc(N[C@@H]4C[C@H]5CC[C@@H](C4)N5)nn3)c3[nH]ncc23)nn1 [Compound 324, (1R,3s,5S)-N-(6-(4-(1-methyl-1H-1,2,3-triazol-4-yl)-1H-indazol-7-yl)pyridazin-3-yl)-8-azabicyclo[3.2.1]octan-3-amine]	1000 to 10000	1000 to 10000	1000 to 10000	1000 to 10000	1000 to 10000	1000 to 10000	> 10000	100 to 1000	1000 to 10000	1000 to 10000	1000 to 10000	–	–	–	–	–	–	–	–	–
Cn1cc(-c2ccc(-c3ccc(OC4CC(C)(C)NC(C)(C)C4)nn3)c3[nH]ncc23)nn1 [Compound 325, 4-(1-methyl-1H-1,2,3-triazol-4-yl)-7-(6-((2,2,6,6-tetramethylpiperidin-4-yl)oxy)pyridazin-3-yl)-1H-indazole]	> 10000	1000 to 10000	1000 to 10000	1000 to 10000	1000 to 10000	1000 to 10000	> 10000	100 to 1000	1000 to 10000	1000 to 10000	1000 to 10000	–	–	–	–	–	–	–	–	–
CN(c1ccc(-c2cc(F)c(-c3cnn(C)c3)c3cn[nH]c23)nn1)C1CC(C)(C)NC(C)(C)C1 [Compound 326, 6-[5-fluoro-4-(1-methylpyrazol-4-yl)-1H-indazol-7-yl]-N-methyl-N-(2,2,6,6-tetramethylpiperidin-4-yl)pyridazin-3-amine]	–	–	–	–	–	–	–	–	–	–	–	1000 to 10000	100 to 1000	100 to 1000	100 to 1000	100 to 1000	1000 to 10000	< 100	100 to 1000	100 to 1000
